Where a name gives a salt, the structure may show the parent alone.

The term IC50 denotes the point on the concentration scale where inhibition reaches its midpoint.

This experiment deals with T1, VCAM-1/α4β1 integrin binding (Homo sapiens, UniProt P05556+P13612).
T1 construct: Jurkat (ATCC TIB-152), known to express integrin α4β1; endogenous in cells; host or cells: Jurkat (ATCC TIB-152)
T1 sequence (P13612 34-1032): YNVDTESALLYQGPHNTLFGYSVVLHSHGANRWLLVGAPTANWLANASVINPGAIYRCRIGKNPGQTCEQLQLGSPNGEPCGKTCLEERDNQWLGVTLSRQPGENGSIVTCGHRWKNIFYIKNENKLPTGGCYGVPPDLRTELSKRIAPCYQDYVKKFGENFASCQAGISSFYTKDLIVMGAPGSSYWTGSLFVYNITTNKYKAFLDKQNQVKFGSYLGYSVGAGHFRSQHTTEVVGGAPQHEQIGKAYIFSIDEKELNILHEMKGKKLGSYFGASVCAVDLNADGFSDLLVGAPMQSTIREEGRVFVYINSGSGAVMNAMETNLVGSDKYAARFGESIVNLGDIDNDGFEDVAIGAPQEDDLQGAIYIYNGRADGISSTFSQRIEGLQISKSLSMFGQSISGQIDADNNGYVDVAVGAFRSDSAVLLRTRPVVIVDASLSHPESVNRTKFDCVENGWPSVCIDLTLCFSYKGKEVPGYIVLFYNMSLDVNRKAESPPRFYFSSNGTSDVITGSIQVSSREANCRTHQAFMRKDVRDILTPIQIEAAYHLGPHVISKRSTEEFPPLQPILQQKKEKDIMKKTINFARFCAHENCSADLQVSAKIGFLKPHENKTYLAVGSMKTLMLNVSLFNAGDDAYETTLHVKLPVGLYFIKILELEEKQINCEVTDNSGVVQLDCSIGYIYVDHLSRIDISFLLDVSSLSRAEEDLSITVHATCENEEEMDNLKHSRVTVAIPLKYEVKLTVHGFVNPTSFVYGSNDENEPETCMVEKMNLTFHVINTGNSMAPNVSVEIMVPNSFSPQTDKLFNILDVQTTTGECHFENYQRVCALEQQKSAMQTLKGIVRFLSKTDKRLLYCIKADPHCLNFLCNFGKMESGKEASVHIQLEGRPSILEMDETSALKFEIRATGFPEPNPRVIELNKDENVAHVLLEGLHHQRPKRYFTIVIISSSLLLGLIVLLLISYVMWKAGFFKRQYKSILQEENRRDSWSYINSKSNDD
T1 sequence (P05556 21-798): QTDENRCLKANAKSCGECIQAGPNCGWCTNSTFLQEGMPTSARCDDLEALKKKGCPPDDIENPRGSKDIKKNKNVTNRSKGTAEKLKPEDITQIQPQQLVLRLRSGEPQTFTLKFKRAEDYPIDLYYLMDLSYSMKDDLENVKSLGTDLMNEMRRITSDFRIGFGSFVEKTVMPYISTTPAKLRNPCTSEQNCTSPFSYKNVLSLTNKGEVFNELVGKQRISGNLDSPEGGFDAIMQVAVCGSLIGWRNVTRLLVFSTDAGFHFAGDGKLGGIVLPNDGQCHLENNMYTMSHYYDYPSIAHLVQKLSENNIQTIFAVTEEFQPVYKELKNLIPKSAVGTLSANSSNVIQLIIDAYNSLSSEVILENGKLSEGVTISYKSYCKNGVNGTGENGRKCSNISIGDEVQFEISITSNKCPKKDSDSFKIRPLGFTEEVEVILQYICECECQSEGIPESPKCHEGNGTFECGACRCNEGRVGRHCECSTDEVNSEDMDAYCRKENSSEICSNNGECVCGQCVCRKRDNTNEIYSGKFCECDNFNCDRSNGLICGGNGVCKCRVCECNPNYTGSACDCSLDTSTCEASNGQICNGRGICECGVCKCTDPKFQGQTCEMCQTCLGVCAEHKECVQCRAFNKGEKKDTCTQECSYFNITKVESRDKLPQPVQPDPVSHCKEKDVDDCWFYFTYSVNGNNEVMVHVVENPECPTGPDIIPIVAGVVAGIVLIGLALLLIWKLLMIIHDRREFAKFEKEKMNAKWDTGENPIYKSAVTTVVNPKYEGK
The experiment is described as follows: Assay of antagonistic activity to VCAM-1/α4β1 integrin binding under the existence of blood serum (Jurkat cell adhesion to VCAM-1/Fc). In kind it is cell-based. The following applies: Jurkat cells, recombinant human VCAM-1/Fc, 50% human blood serum. The procedure: Assay of Antagonistic Activity to VCAM-1/α4β1 Integrin Binding Under the Existence of Blood Serum
The capacity of a test substance antagonistic to the binding of cell strain of human T cells, Jurkat (ATCC TIB-152), known to express integrin α4β1, to VCAM-1 was determined.
Fifty μl/well of a solution (500 ng/ml) of recombinant human VCAM-1/Fc (R & D systems) diluted with buffer A (0.1 M NaHCO3, pH 9.6) was added to a 96-well microtiter plate (Nunc Maxisorp). After the incubation at 4° C. overnight and washing once with PBS, a buffer (buffer B) obtained by diluting Block Ace (Snow Brand Milk Products Co., Ltd.) with PBS to ½ concentration was added in an amount of 150 μl/well. After the incubation at room temperature for 2 hours, buffer B was removed and the plate was washed with PBS once.
Jurkat cells were washed with Dulbecco modified Eagle medium (SIGMA, hereinafter referred to as “DMEM”) once. Then, the cells were again suspended in a binding buffer (DMEM containing 20 mM HEPES, 0.1% BSA, 2 mM MnCl2 and 50% human blood serum (Sigma)) to become 1×10^6 cells/mL.
Sixty μl of a test substance of various concentrations obtained by the dilution with the binding buffer was added to a round-bottom, 96-well plate (IWAKI). Immediately thereafter, 60 μl of the Jurkat cells (1×10^6 cells/ml) were added thereto and shaken on a plate shaker (IKA-Labortechnik, IKA-SCHUTTLER MTS-4) at 1000 rpm for 10 seconds. In 120 μL of the cell suspension to which the test substance was added, each 100 μL thereof was transferred on the VCAM-1/Fc-coated plate and incubated in dark place at room temperature for 60 minutes. After the shaking on the plate shaker at 1000 rpm for 30 seconds, the solution was immediately removed. Then, the unbound cells were removed by washing them with PBS once. A buffer C (PBS containing 0.82% Triton X-100) was added to the plate in an amount of 70 μL/well. After the shaking on the plate shaker at 1000 rpm for 5 minutes, the bound Jurkat cells were lysed. After centrifuging the cells on a plate centrifuge (SIGMA 4-15C) at room temperature at 2500 rpm for 5 minutes, 50 μL of supernatant thereof was transferred to a 96-well microtiter plate (Nunc Maxisorp). Each 50 μL of Substrate Buffer (Promega, CytoTox 96 Non-Radioactive Cytotoxicity Assay) was added thereto, shaken on a plate shaker at 1000 rpm for 10 seconds and reacted in dark place at room temperature for 30 minutes. Then, each 50 μL of Stop Solution (Promega, CytoTox 96 Non-Radioactive Cytotoxicity Assay) was added thereto and shaken on a plate shaker at 1000 rpm for 10 seconds. […] The absorbance thus obtained detects an activity of lactate dehydrogenase (LDH) dissolved in the supernatant of each well. Namely, the absorbance is proportional to the number of remaining Jurkat cells on the plate via the binding to VCAM-1. The test was conducted in duplicate and the binding rate of each test substance in various concentrations was determined while the absorbance of the test substance-free well was determined to be 100% and the absorbance of the Jurkat-cell-free well was determined to be 0%. The concentration for the 50% inhibition of binding, IC50, was calculated.
Regarding `CC(C)NCc1ccc2c(c1)c(=O)n(-c1ccc(C[C@H](NC(=O)c3c(Cl)cccc3Cl)C(=O)O)cc1)c(=O)n2C` [Example 194], the IC50 turned out to be 6.9 nM.

`CN1CCN(c2ccc3c(c2)c(=O)n(-c2ccc(C[C@H](NC(=O)c4c(Cl)cccc4Cl)C(=O)O)cc2)c(=O)n3C)CC1` [Example 2]: the IC50 was determined as 22.9 nM.

Consider `Cn1c(=O)n(-c2ccc(C[C@H](NC(=O)c3c(Cl)cccc3Cl)C(=O)O)cc2)c(=O)c2cnccc21` [Example 64], for which the 50% inhibitory concentration (IC50) was determined as 12.3 nM.

On to `CCc1nccn1-c1cc2c(cc1F)c(=O)n(-c1ccc(C[C@H](NC(=O)c3c(Cl)cccc3Cl)C(=O)O)cc1)c(=O)n2C` [Example 161], for which the IC50 stood at 16.5 nM.

Consider `Cn1c(=O)n(-c2ccc(C[C@H](NC(=O)c3c(Cl)cccc3Cl)C(=O)O)cc2)c(=O)c2cc(S(C)(=O)=O)ccc21` [Example 38, N-(2,6-dichlorobenzoyl)-4-[1-methyl-6-(methylsulfonyl)-2,4-quinazoline-dione-3-yl]-L-phenylalanine], for which the concentration for half-maximal inhibition (IC50) is 12.4 nM.

As to `Cn1c(=O)n(-c2ccc(C[C@H](NC(=O)c3c(Cl)cccc3Cl)C(=O)O)cc2)c(=O)c2cc(CNC3CC3)ccc21` [Example 192], the 50% inhibitory concentration (IC50) came to 17.9 nM.

Regarding `Cn1c(=O)n(-c2ccc(C[C@H](NC(=O)c3c(Cl)cccc3Cl)C(=O)O)cc2)c(=O)c2cc(CO)ccc21` [Example 60], the IC50 came out at 25.5 nM.

In the case of `Cn1c(=O)n(-c2ccc(C[C@H](NC(=O)c3c(Cl)cccc3Cl)C(=O)O)cc2)c(=O)c2ccc(N3CCOCC3)cc21` [Example 39, N-(2,6-dichlorobenzoyl)-4-[1-methyl-7-(morpholine-4-yl)-2,4-quinazoline-dione-3-yl]-L-phenylalanine trifluoroacetate], the IC50 turned out to be 6.5 nM.

In the case of `CNCc1ccc2c(=O)n(-c3ccc(C[C@H](NC(=O)c4c(Cl)cccc4Cl)C(=O)O)cc3)c(=O)n(C)c2c1` [Example 144, N-(2,6-dichlorobenzoyl)-4-[7-methylaminomethyl-1-methyl-2,4-quinazoline-dione-3-yl]-L-phenylalanine], the IC50 was 4.9 nM.

For the compound `Cc1nccn1-c1cc2c(cc1F)c(=O)n(-c1ccc(C[C@H](NC(=O)c3c(Cl)cccc3Cl)C(=O)O)cc1)c(=O)n2C` [Example 160], the half-inhibitory concentration (IC50) was found to be 9.4 nM.

In the case of `CC(C)CCNCc1ccc2c(c1)c(=O)n(-c1ccc(C[C@H](NC(=O)c3c(Cl)cccc3Cl)C(=O)O)cc1)c(=O)n2C` [Example 196], the half-maximal inhibitory concentration (IC50) was 5.3 nM.

As to `CNCCCOc1ccc2c(c1)c(=O)n(-c1ccc(C[C@H](NC(=O)c3c(Cl)cccc3Cl)C(=O)O)cc1)c(=O)n2C` [Example 226], the IC50 turned out to be 9.2 nM.

For `Cn1c(=O)n(-c2ccc(C[C@H](NC(=O)c3c(Cl)cccc3Cl)C(=O)O)cc2)c(=O)c2ccc(CN3CCCC3)cc21` [Example 35, N-(2,6-dichlorobenzoyl)-4-[1-methyl-7-(pyrrolidine-1-ylmethyl)-2,4-quinazoline-dione-3-yl]-L-phenylalanine trifluoroacetate], the concentration for half-maximal inhibition (IC50) came to 7.9 nM.

Regarding `CCNCCCc1ccc2c(c1)c(=O)n(-c1ccc(C[C@H](NC(=O)c3c(Cl)cccc3Cl)C(=O)O)cc1)c(=O)n2C` [Example 208], the concentration for half-maximal inhibition (IC50) turned out to be 13.4 nM.

`CCC(C)NCc1ccc2c(c1)c(=O)n(-c1ccc(C[C@H](NC(=O)c3c(Cl)cccc3Cl)C(=O)O)cc1)c(=O)n2C` (some centres unmarked) [Example 198]: the half-inhibitory concentration (IC50) came to 5.7 nM.

In the case of `CCNc1ccc2c(=O)n(-c3ccc(C[C@H](NC(=O)c4c(Cl)cccc4Cl)C(=O)O)cc3)c(=O)n(C)c2c1` [Example 19], the concentration for half-maximal inhibition (IC50) was 23.5 nM.

As to `CCN(CC)CCN(C)c1cc2c(cc1F)c(=O)n(-c1ccc(C[C@H](NC(=O)c3c(Cl)cccc3Cl)C(=O)O)cc1)c(=O)n2C` [Example 14], the IC50 amounted to 5.8 nM.

Regarding `Cn1c(=O)n(-c2ccc(C[C@H](NC(=O)c3c(Cl)cccc3Cl)C(=O)O)cc2)c(=O)c2cc(CNCC3CC3)ccc21` [Example 197], the half-inhibitory concentration (IC50) worked out at 6.3 nM.

As to `Cn1c(=O)n(-c2ccc(C[C@H](NC(=O)c3c(Cl)cccc3Cl)C(=O)O)cc2)c(=O)c2cc(C(N)=O)ccc21` [Example 50], the IC50 stood at 15.4 nM.

Take `COCCNc1ccc2c(c1)c(=O)n(-c1ccc(C[C@H](NC(=O)c3c(Cl)cccc3Cl)C(=O)O)cc1)c(=O)n2C` [Example 10]: the IC50 was 15.5 nM.

For the compound `CCN(C)c1ccc2c(c1)c(=O)n(-c1ccc(C[C@H](NC(=O)c3c(Cl)cccc3Cl)C(=O)O)cc1)c(=O)n2C` [Example 139, N-(2,6-dichlorobenzoyl)-4-[6-ethylmethylamino-1-methyl-2,4-quinazoline-dione-3-yl]-L-phenylalanine], the half-maximal inhibitory concentration (IC50) worked out at 8.4 nM.

As for `CN1CCN(C)c2cc3c(cc21)c(=O)n(-c1ccc(C[C@H](NC(=O)c2c(Cl)cccc2Cl)C(=O)O)cc1)c(=O)n3C` [Example 17], the 50% inhibitory concentration (IC50) was found to be 22.9 nM.

Regarding `CCN(CC)Cc1ccc2c(c1)c(=O)n(-c1ccc(C[C@H](NC(=O)c3c(Cl)cccc3Cl)C(=O)O)cc1)c(=O)n2C` [Example 55], the IC50 worked out at 14.2 nM.

On to `CCN(CC)CCN(C)c1ccc2c(c1)c(=O)n(-c1ccc(C[C@H](NC(=O)c3c(Cl)cccc3Cl)C(=O)O)cc1)c(=O)n2C` [Example 5], for which the IC50 worked out at 10.8 nM.

As to `CNCCc1ccc2c(c1)c(=O)n(-c1ccc(C[C@H](NC(=O)c3c(Cl)cccc3Cl)C(=O)O)cc1)c(=O)n2C` [Example 230, N-(2,6-dichlorobenzoyl)-4-{1-methyl-6-[2-(methylamino)ethyl]-2,4-dioxo-1,2,3,4-tetrahydroquinazoline-3(2H)-yl}-L-phenylalanine], the concentration for half-maximal inhibition (IC50) was 11.7 nM.

For `Cn1c(=O)n(-c2ccc(C[C@H](NC(=O)c3c(Cl)cccc3Cl)C(=O)O)cc2)c(=O)c2cc(CN3CCCCC3)ccc21` [Example 57], the IC50 is 16.6 nM.

For the compound `Cn1c(=O)n(-c2ccc(C[C@H](NC(=O)c3c(Cl)cccc3Cl)C(=O)O)cc2)c(=O)c2cc(CN3CCCC3)ccc21` [Example 56], the IC50 amounted to 13.1 nM.

`CN(C)CCN(C)c1cc2c(cc1F)c(=O)n(-c1ccc(C[C@H](NC(=O)c3c(Cl)cccc3Cl)C(=O)O)cc1)c(=O)n2C` [Example 13]: the IC50 worked out at 5.5 nM.

With `CCN(CC)Cc1ccc2c(=O)n(-c3ccc(C[C@H](NC(=O)c4c(Cl)cccc4Cl)C(=O)O)cc3)c(=O)n(C)c2c1` [Example 146, N-(2,6-dichlorobenzoyl)-4-[1-methyl-7-diethylaminomethyl-2,4-quinazoline-dione-3-yl]-L-phenylalanine], the IC50 was 7.9 nM.

On to `Cn1c(=O)n(-c2ccc(C[C@H](NC(=O)c3c(Cl)cccc3Cl)C(=O)O)cc2)c(=O)c2cc(CN)ccc21` [Example 191], for which the IC50 amounted to 12.9 nM.

On to `Cn1c(=O)n(-c2ccc(C[C@H](NC(=O)c3c(Cl)cccc3Cl)C(=O)O)cc2)c(=O)c2cc(CN3CCOCC3)ccc21` [Example 53], for which the 50% inhibitory concentration (IC50) was 23.3 nM.

With `CC(C)N(C)Cc1ccc2c(c1)c(=O)n(-c1ccc(C[C@H](NC(=O)c3c(Cl)cccc3Cl)C(=O)O)cc1)c(=O)n2C` [Example 199], the half-inhibitory concentration (IC50) was 18 nM.

Consider “N-(2,6-dichlorobenzoyl)-4-[6-((2S)-2-aminopropoxy)-1-methyl-2,4-quinazoline-dione-3-yl]-L-phenylalanine isopropylester [Example 141]”, for which the IC50 is 12.2 nM.

As to `CN(C)CCOc1ccc2c(c1)c(=O)n(-c1ccc(C[C@H](NC(=O)c3c(Cl)cccc3Cl)C(=O)O)cc1)c(=O)n2C` [Example 142, N-(2,6-dichlorobenzoyl)-4-[6-(2-dimethylaminoethoxy)-1-methyl-2,4-quinazoline-dione-3-yl]-L-phenylalanine], the IC50 was 14.7 nM.

On to `CNCCc1cc2c(=O)n(-c3ccc(C[C@H](NC(=O)c4c(Cl)cccc4Cl)C(=O)O)cc3)c(=O)n(C)c2cc1F` [Example 229, N-(2,6-dichlorobenzoyl)-4-{7-fluoro-1-methyl-6-[2-(methylamino)ethyl]-2,4-dioxo-1,2,3,4-tetrahydroquinazoline-3(2H)-yl}-L-phenylalanine], for which the IC50 was found to be 14.7 nM.

The values are drawn from US7345049B2, “Phenylalanine derivatives” (Ajinomoto Co., Inc., priority 2003, dated 2008).
